Reference: paper PMC11649115, “In vitro safety evaluation of dopamine D3R antagonist, R-VK4-116, as a potential medication for the treatment of opioid use disorder” (PLOS ONE, 2024)
Read-outs that look alike come from different tables or passages of the source.

Assays:
CYP3A4 = assay: CYP induction, in situ catalytic activity, human hepatocytes; type: in vitro ADME
CYP2C19 = CYP2C19 (Homo sapiens, UniProt P33261); assay: CYP inhibition in human liver microsomes; conditions: human liver microsomes
CYP3A4 mRNA = assay: CYP induction, mRNA, primary cultured human hepatocytes; type: in vitro ADME; conditions: for fold induction at 48 h, 0.01 µM / fold induction at 48 h, 0.1 µM / fold induction at 48 h, 1 µM / fold induction at 48 h, 3 µM / fold induction at 48 h, 5 µM / fold induction at 48 h, 10 µM: human, primary cultured human hepatocytes, read-out: CYP3A4 mRNA Fold Induction (fold of vehicle control)
hERG = hERG (Homo sapiens, UniProt Q12809); assay: CiPA IonChannelProfiler Cardiac Panel, QPatch
BCRP = molecular target: T1, BCRP (Homo sapiens, UniProt Q9UNQ0); assay: Transporter mediated assay (substrate/inhibitor), MDCK-II cells; type: in vitro ADME
T1 construct: expressed in transfected cells; host or cells: MDCK-II cells
T1 sequence (Q9UNQ0 1-655): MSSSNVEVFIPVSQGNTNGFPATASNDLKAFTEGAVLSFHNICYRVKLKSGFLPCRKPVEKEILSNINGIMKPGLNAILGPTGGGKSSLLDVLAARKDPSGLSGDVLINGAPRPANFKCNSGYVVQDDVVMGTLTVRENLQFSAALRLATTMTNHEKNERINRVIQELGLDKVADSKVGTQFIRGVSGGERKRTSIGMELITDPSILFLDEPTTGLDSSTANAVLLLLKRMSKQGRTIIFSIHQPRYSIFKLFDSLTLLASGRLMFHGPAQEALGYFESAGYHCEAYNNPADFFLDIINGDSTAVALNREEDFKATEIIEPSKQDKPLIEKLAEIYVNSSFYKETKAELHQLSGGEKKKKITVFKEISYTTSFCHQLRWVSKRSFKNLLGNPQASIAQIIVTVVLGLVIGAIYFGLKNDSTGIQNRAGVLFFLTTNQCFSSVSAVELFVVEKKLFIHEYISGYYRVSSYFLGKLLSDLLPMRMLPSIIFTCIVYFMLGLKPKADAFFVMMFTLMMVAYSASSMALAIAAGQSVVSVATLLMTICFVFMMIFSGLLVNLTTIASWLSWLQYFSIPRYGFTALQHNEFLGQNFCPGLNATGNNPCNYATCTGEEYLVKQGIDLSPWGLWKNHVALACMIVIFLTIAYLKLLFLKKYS
Description: The MDCK-II cells were treated to express the transporter of interest.
For BCRP and P-gp, the apparent permeability Papp and Efflux Ratio (ER) were calculated [16]. Net basal (B) to apical (A) flux (B → A) of the substrate transport (pmol/min/cm^2) by BCRP or P-gp was calculated by subtracting A → B flux from B → A flux.

[1] = Metabolic stability in liver microsomes; conditions: monkey, pH 7.4
CYP2C9 = CYP2C9 (Homo sapiens, UniProt P11712); assay: CYP inhibition in human liver microsomes; conditions: human liver microsomes
CYP2B6 mRNA = assay: CYP induction, mRNA, primary cultured human hepatocytes; conditions: primary cultured human hepatocytes, Fold Induction (CYP2B6 mRNA expression)
Excerpt: (§1) Rifampicin as a positive control and solvent (0.1% DMSO) vehicle control were also included. The acceptance criteria for CYP induction was ≥ 2-fold induction for significant CYP activity, while the acceptance criteria for CYP mRNA was ≥ 4-fold for significant CYP induction.

CYP2B6 = assay: as above; conditions: primary cultured human hepatocytes, Fold Induction (CYP2B6 mRNA expression)
Excerpt: as §1

[2] = heat-inactivated liver microsomes

Sequence of CYP2C9 (P11712 whole entry): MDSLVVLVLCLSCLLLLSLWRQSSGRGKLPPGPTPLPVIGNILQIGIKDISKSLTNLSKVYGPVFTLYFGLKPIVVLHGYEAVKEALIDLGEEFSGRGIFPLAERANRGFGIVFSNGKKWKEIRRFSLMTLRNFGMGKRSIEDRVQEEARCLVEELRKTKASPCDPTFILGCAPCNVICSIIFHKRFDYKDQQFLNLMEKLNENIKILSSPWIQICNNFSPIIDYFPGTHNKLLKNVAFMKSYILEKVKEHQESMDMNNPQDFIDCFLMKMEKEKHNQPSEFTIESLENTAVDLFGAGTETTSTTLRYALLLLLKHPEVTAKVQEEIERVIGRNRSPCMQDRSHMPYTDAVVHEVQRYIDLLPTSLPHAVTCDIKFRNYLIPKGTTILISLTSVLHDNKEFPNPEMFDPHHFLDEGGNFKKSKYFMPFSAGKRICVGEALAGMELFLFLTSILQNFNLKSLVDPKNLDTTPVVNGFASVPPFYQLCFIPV
Sequence of CYP2C19 (P33261 whole entry): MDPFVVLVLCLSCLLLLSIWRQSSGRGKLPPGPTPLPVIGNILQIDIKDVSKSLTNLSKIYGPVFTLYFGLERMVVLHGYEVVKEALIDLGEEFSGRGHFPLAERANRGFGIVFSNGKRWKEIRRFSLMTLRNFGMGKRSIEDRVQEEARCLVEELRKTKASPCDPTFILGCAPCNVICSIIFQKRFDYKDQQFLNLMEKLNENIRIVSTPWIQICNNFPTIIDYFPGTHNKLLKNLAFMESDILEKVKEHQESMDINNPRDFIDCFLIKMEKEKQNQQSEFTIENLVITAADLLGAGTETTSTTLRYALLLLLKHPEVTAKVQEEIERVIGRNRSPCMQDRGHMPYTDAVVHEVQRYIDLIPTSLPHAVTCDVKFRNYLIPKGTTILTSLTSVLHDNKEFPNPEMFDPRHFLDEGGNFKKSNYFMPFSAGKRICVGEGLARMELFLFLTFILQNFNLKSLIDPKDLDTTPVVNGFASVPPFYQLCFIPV
Sequence of hERG (Q12809 whole entry): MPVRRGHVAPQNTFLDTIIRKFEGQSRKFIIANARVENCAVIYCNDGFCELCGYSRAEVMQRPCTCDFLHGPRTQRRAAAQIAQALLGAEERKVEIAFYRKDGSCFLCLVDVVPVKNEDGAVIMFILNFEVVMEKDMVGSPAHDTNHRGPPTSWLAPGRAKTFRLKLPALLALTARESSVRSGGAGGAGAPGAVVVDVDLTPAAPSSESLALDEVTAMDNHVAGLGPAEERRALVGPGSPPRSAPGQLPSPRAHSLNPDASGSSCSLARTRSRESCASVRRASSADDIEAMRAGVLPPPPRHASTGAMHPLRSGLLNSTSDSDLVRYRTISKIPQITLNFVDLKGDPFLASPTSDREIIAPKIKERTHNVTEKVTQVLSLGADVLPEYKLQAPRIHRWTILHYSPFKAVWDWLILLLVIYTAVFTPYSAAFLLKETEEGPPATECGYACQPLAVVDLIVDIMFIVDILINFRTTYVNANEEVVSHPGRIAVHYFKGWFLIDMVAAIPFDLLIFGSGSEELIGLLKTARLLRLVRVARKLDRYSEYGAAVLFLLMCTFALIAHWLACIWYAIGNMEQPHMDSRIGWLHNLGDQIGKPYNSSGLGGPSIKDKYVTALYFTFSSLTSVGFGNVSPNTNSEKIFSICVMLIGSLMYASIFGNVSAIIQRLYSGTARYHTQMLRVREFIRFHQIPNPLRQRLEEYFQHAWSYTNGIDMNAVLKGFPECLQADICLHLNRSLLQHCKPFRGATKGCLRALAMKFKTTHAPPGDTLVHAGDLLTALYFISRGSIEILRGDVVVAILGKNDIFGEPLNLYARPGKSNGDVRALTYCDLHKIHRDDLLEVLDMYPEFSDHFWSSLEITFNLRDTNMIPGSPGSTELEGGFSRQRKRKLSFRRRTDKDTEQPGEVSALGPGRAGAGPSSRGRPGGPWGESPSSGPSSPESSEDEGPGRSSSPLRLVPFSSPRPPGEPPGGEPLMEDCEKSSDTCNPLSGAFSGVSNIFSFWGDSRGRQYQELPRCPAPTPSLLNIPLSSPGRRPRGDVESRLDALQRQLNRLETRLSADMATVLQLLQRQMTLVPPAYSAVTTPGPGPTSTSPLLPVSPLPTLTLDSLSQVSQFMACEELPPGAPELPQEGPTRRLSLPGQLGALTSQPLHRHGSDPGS

## CCc1cc(Cl)c(OC)c(N2CCN(CC(O)CCNC(=O)c3cc4ccccc4[nH]3)CC2)c1 (stereo not drawn) [R-VK4-116, N-(4-(4-(3-chloro-5-ethyl-2-methoxyphenyl)piperazin-1-yl)-3-hydroxybutyl)-1H-indole-2-carboxamide]
CYP3A4; 0.01 to 10 μM
  CYP3A4 activity: did not increase
CYP3A4; hepatocyte Lot 336, 0.01 µM
  Fold of Vehicle Control (CYP3A4 activity, testosterone-6β-hydroxylation): 0.96 fold
  Testosterone-6β- Hydroxylation: 9.1 pmol/min/106 cells
CYP3A4; hepatocyte Lot 336, 0.1 µM
  Fold of Vehicle Control (CYP3A4 activity, testosterone-6β-hydroxylation): 0.80 fold
  Testosterone-6β- Hydroxylation: 7.5 pmol/min/106 cells
CYP3A4; hepatocyte Lot 336, 1 µM
  Fold of Vehicle Control (CYP3A4 activity, testosterone-6β-hydroxylation): 0.66 fold
  Testosterone-6β- Hydroxylation: 6.3 pmol/min/106 cells
CYP3A4; hepatocyte Lot 336, 3 µM
  Fold of Vehicle Control (CYP3A4 activity, testosterone-6β-hydroxylation): 0.63 fold
  Testosterone-6β- Hydroxylation: 5.9 pmol/min/106 cells
CYP3A4; hepatocyte Lot 336, 5 µM
  Fold of Vehicle Control (CYP3A4 activity, testosterone-6β-hydroxylation): 0.64 fold
  Testosterone-6β- Hydroxylation: 6.1 pmol/min/106 cells
CYP3A4; hepatocyte Lot 336, 10 µM
  Fold of Vehicle Control (CYP3A4 activity, testosterone-6β-hydroxylation): 0.55 fold
CYP3A4; hepatocyte Lot 348B, 0.01 µM
  Fold of Vehicle Control (CYP3A4 activity, testosterone-6β-hydroxylation): 1.0 fold
CYP3A4; hepatocyte Lot 348B, 0.1 µM
  Fold of Vehicle Control (CYP3A4 activity, testosterone-6β-hydroxylation): 1.0 fold
CYP3A4; hepatocyte Lot 348B, 1 µM
  Fold of Vehicle Control (CYP3A4 activity, testosterone-6β-hydroxylation): 0.70 fold
CYP3A4; hepatocyte Lot 348B, 3 µM
  Fold of Vehicle Control (CYP3A4 activity, testosterone-6β-hydroxylation): 0.56 fold
CYP3A4; hepatocyte Lot 348B, 5 µM
  Fold of Vehicle Control (CYP3A4 activity, testosterone-6β-hydroxylation): 0.56 fold
CYP3A4; hepatocyte Lot 348B, 10 µM
  Fold of Vehicle Control (CYP3A4 activity, testosterone-6β-hydroxylation): 0.49 fold
CYP3A4; hepatocyte Lot 399, 0.01 µM
  Fold of Vehicle Control (CYP3A4 activity, testosterone-6β-hydroxylation): 1.0 fold
  Testosterone-6β- Hydroxylation: 58 pmol/min/106 cells
CYP3A4; hepatocyte Lot 399, 0.1 µM
  Fold of Vehicle Control (CYP3A4 activity, testosterone-6β-hydroxylation): 0.89 fold
  Testosterone-6β- Hydroxylation: 49 pmol/min/106 cells
CYP3A4; hepatocyte Lot 399, 1 µM
  Fold of Vehicle Control (CYP3A4 activity, testosterone-6β-hydroxylation): 0.45 fold
  Testosterone-6β- Hydroxylation: 25 pmol/min/106 cells
CYP3A4; hepatocyte Lot 399, 3 µM
  Fold of Vehicle Control (CYP3A4 activity, testosterone-6β-hydroxylation): 0.32 fold
  Testosterone-6β- Hydroxylation: 18 pmol/min/106 cells
CYP3A4; hepatocyte Lot 399, 5 µM
  Fold of Vehicle Control (CYP3A4 activity, testosterone-6β-hydroxylation): 0.30 fold
  Testosterone-6β- Hydroxylation: 16 pmol/min/106 cells
CYP3A4; hepatocyte Lot 399, 10 µM
  Fold of Vehicle Control (CYP3A4 activity, testosterone-6β-hydroxylation): 0.23 fold
  Testosterone-6β- Hydroxylation: 13 pmol/min/106 cells
CYP2C19; up to 100 μM
  CYP2C19 inhibition: did not inhibit CYP significantly
CYP2C19; human, probe mephenytoin
  activity at 20 min, 0.1 µM: 102 ± 4.6%
  activity at 20 min, 0.3 µM: 96.2 ± 5%
  activity at 20 min, 1 µM: 97.3 ± 2.2%
  activity at 20 min, 3 µM: 95.9 ± 3.6%
  activity at 20 min, 10 µM: 99.6 ± 3.3%
  activity at 20 min, 30 µM: 96.7 ± 3.5%
  activity at 20 min, 60 µM: 95 ± 5.4%
  activity at 20 min, 100 µM: 99.7 ± 3.4%
CYP3A4 mRNA; 5 μM, two days, average of hepatocyte lots
  induction in CYP3A4 mRNA, average: 2.9 fold
CYP3A4 mRNA; Lot 336, 0.01 μM
  fold induction at 48 h, 0.01 µM: 1.1 ± 0.079
CYP3A4 mRNA; Lot 336, 0.1 μM
  fold induction at 48 h, 0.1 µM: 1.1 ± 0.18
CYP3A4 mRNA; Lot 336, 1 μM
  fold induction at 48 h, 1 µM: 2.3 ± 0.15
CYP3A4 mRNA; Lot 336, 3 μM
  fold induction at 48 h, 3 µM: 3.7 ± 0.56
CYP3A4 mRNA; Lot 336, 5 μM
  fold induction at 48 h, 5 µM: 4 ± 0.78
CYP3A4 mRNA; Lot 336, 10 μM
  fold induction at 48 h, 10 µM: 3.7 ± 0.2
CYP3A4 mRNA; Lot 348B, 0.01 μM
  fold induction at 48 h, 0.01 µM: 1.1 ± 0.05
CYP3A4 mRNA; Lot 348B, 0.1 μM
  fold induction at 48 h, 0.1 µM: 1.2 ± 0.081
CYP3A4 mRNA; Lot 348B, 1 μM
  fold induction at 48 h, 1 µM: 1.3 ± 0.12
CYP3A4 mRNA; Lot 348B, 3 μM
  fold induction at 48 h, 3 µM: 1.8 ± 0.17
CYP3A4 mRNA; Lot 348B, 5 μM
  fold induction at 48 h, 5 µM: 2 ± 0.27
CYP3A4 mRNA; Lot 348B, 10 μM
  fold induction at 48 h, 10 µM: 1.9 ± 0.13
CYP3A4 mRNA; Lot 399, 0.01 μM
  fold induction at 48 h, 0.01 µM: 1.2 ± 0.2
CYP3A4 mRNA; Lot 399, 0.1 μM
  fold induction at 48 h, 0.1 µM: 1.2 ± 0.11
CYP3A4 mRNA; Lot 399, 1 μM
  fold induction at 48 h, 1 µM: 1.8 ± 0.12
CYP3A4 mRNA; Lot 399, 3 μM
  fold induction at 48 h, 3 µM: 2.6 ± 0.14
CYP3A4 mRNA; Lot 399, 5 μM
  fold induction at 48 h, 5 µM: 2.7 ± 0.4
CYP3A4 mRNA; Lot 399, 10 μM
  fold induction at 48 h, 10 µM: 2.3 ± 0.39
hERG; 10 μM
  inhibition at 10 µM: 54.6%
hERG; 100 μM
  inhibition at 100 µM: 82.3%
hERG; ≥10 μM
  inhibition at 10 µM: 54 to 82%
BCRP; BCRP, substrate test, 1 µM
  Papp A→B at 1 µM: < 0.2 ×10⁻⁶ cm/s
  Papp B→A at 1 µM: < 0.1 ×10⁻⁶ cm/s
BCRP; probe prazosin 2 μM
  inhibition at 10 µM: 54 ± 1.46%
[1]; [2]
  remaining at 0 h, 1 μM: 100%
  remaining at 0 h, 10 μM: 100%
  remaining at 2 h, 1 μM: 90%
  remaining at 2 h, 10 μM: 89.9%
[1]; liver microsomes
  remaining at 0 h, 1 μM: 100%
  remaining at 0 h, 10 μM: 100%
  remaining at 0.5 h, 1 μM: 32%
  remaining at 0.5 h, 10 μM: 60.1%
  remaining at 1 h, 1 μM: 21.2%
  remaining at 1 h, 10 μM: 46.5%
  remaining at 1.5 h, 1 μM: 17.5%
  remaining at 1.5 h, 10 μM: 42.1%
  remaining at 2 h, 1 μM: 15%
  remaining at 2 h, 10 μM: 39.7%
CYP2C9; up to 100 μM
  CYP2C9 inhibition: did not inhibit CYP significantly
CYP2C9; human, probe diclofenac
  activity at 20 min, 0.1 µM: 89.5 ± 9.2%
  activity at 20 min, 0.3 µM: 79 ± 2.7%
  activity at 20 min, 1 µM: 80.9 ± 2.2%
  activity at 20 min, 3 µM: 92.3 ± 10.1%
  activity at 20 min, 10 µM: 91.5 ± 7.3%
  activity at 20 min, 30 µM: 80.9 ± 0.9%
  activity at 20 min, 60 µM: 81.8 ± 3.1%
  activity at 20 min, 100 µM: 93.4 ± 8.1%
CYP2B6 mRNA; hepatocyte Lot 336, 10 µM
  fold induction at 48 h, 10 µM: 1.9
CYP2B6 mRNA; hepatocyte Lot 348B, 0.01 µM
  fold induction at 48 h, 0.01 µM: 0.98
CYP2B6 mRNA; hepatocyte Lot 348B, 0.1 µM
  fold induction at 48 h, 0.1 µM: 1.2
CYP2B6 mRNA; hepatocyte Lot 348B, 1 µM
  fold induction at 48 h, 1 µM: 1
CYP2B6 mRNA; hepatocyte Lot 348B, 3 µM
  fold induction at 48 h, 3 µM: 1.1
CYP2B6 mRNA; hepatocyte Lot 348B, 5 µM
  fold induction at 48 h, 5 µM: 1.1
CYP2B6 mRNA; hepatocyte Lot 348B, 10 µM
  fold induction at 48 h, 10 µM: 1.1
CYP2B6 mRNA; hepatocyte Lot 399, 0.01 µM
  fold induction at 48 h, 0.01 µM: 1.1
CYP2B6; hepatocyte Lot 336, 0.01 µM
  fold induction at 48 h, 0.01 µM: 1
CYP2B6; hepatocyte Lot 336, 0.1 µM
  fold induction at 48 h, 0.1 µM: 1
CYP2B6; hepatocyte Lot 336, 1 µM
  fold induction at 48 h, 1 µM: 1.3
CYP2B6; hepatocyte Lot 336, 3 µM
  fold induction at 48 h, 3 µM: 1.9
CYP2B6; hepatocyte Lot 336, 5 µM
  fold induction at 48 h, 5 µM: 1.8
CYP2B6; hepatocyte Lot 399, 0.1 µM
  fold induction at 48 h, 0.1 µM: 1.2
CYP2B6; hepatocyte Lot 399, 1 µM
  fold induction at 48 h, 1 µM: 1.2
CYP2B6; hepatocyte Lot 399, 3 µM
  fold induction at 48 h, 3 µM: 1.3
CYP2B6; hepatocyte Lot 399, 5 µM
  fold induction at 48 h, 5 µM: 1.2
CYP2B6; hepatocyte Lot 399, 10 µM
  fold induction at 48 h, 10 µM: 1.2
